System: anesthetized open-chest dogs
Experiment: Hemodynamics of anesthetized open-chest dogs, intravenous infusion
Assay type: in vivo, mongrel dogs
Protocol: The animals were anesthetized by intravenous injection of 30 mg/kg sodium pentobarbital, tracheally intubated, and mechanically ventilated with positive air pressure. Left thoracotomy was performed through the fourth intercostal space and the heart was suspended in a pericardial cradle, the aortic root was isolated and a probe of blood flow meter (12 or 14 mm in diameter) was fixed to measure the aortic blood flow as a representation of cardiac output (CO), the circumflex branch of left coronary artery was isolated and a probe of blood flow meter (2 or 2.5 mm in diameter) was fixed to measure the coronary blood flow (CBF). A polyethylene catheter filled with heparin physiological saline was inserted through cardiac apex into the left ventricle to measure the left ventricular pressure (LVP) and left ventricular end-diastolic pressure (LVEDP), Peak positive and peak negative first derivatives of the LVP (+ LVdp/dt and − LVdp/dt) were calculated with the Acknowledge software. The systolic blood pressure (SBP), diastolic blood pressure (DBP) and mean arterial pressure (MAP) were measured by polyethylene catheter via the femoral artery, ECG □ was measured by a AC-601G ECG amplifier. The above-mentioned analog signal was input into a data acquisition workstation (MP100, BIOPAC Systems, USA) to a computer running Acknowledge (version 3.7.1).
After surgery, various indexes before administration were recorded until the indexes were stable, and then intravenous infusion administration was conducted. Thirty dogs were divided into five groups (six dogs in each group), the experiment groups were given 0.15, 0.3, 0.6 mg/kg of ASP-[…] respectively, the normal control group was given 1 ml/kg of solvent, and the positive control group was given 0.3 mg/kg of astragaloside IV. The delivery volumes were 15 ml for each dog was and the delivery velocity was 1 ml/min. The indexes were recorded at 5, 10, 15, 20, 30, 45, 60, 90 and 120 mins after drug administration. At the end of experiment, the hearts were excised and weighted. The myocardial blood flow for per hectogram (CF), coronary resistance (CR), cardiac index (CI), left ventricular work (LVW) and total peripheral resistance (TPR) were calculated according to the following formulae: CF=CBF×[…]/heart weight CR=MAP/CF CI=CO/0.11×(body weight)^2/3 LVW=CO×(MAP−5)×1.052×0.0136 TPR=MAP×79.92/CO
Data are expressed as mean±SD ( x±s), the paired t-test was used to compare the significance between before and after administration, the unpaired t-test was adopted for comparison between groups.

[1] = 0.6 mg/kg iv, 15 min after administration
[2] = 0.6 mg/kg iv, 20 min after administration
[3] = 0.6 mg/kg iv, 30 min after administration
[4] = 0.6 mg/kg iv, 45 min after administration
[5] = 0.6 mg/kg iv, 60 min after administration
[6] = 0.6 mg/kg iv, 90 min after administration
[7] = 0.6 mg/kg iv, 120 min after administration
[8] = 0.6 mg/kg iv, before administration
[9] = 0.15, 0.3 and 0.6 mg/kg iv, within 120 min

CC(C)(O)[C@@H]1CC[C@](C)([C@H]2[C@@H](O)C[C@@]3(C)C4C[C@H](OC5OC(CO)C(O)C(O)C5O)C5C(C)(C)[C@@H](O)CC[C@@]56C[C@@]46CC[C@]23C)O1 (stereo partly drawn) [CMG, Cycloastragenol-6-O-β-D-glucoside]
LVW change vs before administration [1]: (0.06 ± 0.13) kg · m
TPR [1]: 5249 ± 2234 dyn · s/cm^5
TPR change vs before administration [1]: (−258 ± 392) dyn · s/cm^5
dp/dt [1]: 1199 ± 288 mmHg/s
dp/dt change vs before administration [1]: (95 ± 56) mmHg/s
−dp/dt [1]: −851 ± 196 mmHg/s
−dp/dt change vs before administration [1]: (2 ± 98) mmHg/s
CF [2]: 49.8 ± 8.0 ml/min/100 g
CF change vs before administration [2]: (−1.4 ± 1.4) ml/min/100 g
CI [2]: 2.05 ± 0.41 L/min/m^2
CI change vs before administration [2]: (0.09 ± 0.18) L/min/m^2
CO [2]: 1.19 ± 0.34 L/min
CO change vs before administration [2]: (0.05 ± 0.10) L/min
CR [2]: 1.48 ± 0.36 mmHg/ml/min/100 g
CR change vs before administration [2]: (0.06 ± 0.10) mmHg/ml/min/100 g
LVEDP [2]: 1.2 ± 1.6 mmHg
LVEDP change vs before administration [2]: (−1.5 ± 0.54) mmHg
LVP [2]: 107 ± 17 mmHg
LVP change vs before administration [2]: (0.4 ± 3.9) mmHg
LVW [2]: 1.13 ± 0.35 kg · m
LVW change vs before administration [2]: (0.06 ± 0.17) kg · m
TPR [2]: 5176 ± 1818 dyn · s/cm^5
TPR change vs before administration [2]: (−331 ± 534) dyn · s/cm^5
dp/dt [2]: 1276 ± 339 mmHg/s
dp/dt change vs before administration [2]: (172 ± 151) mmHg/s
−dp/dt [2]: −842 ± 220 mmHg/s
−dp/dt change vs before administration [2]: (10 ± 91) mmHg/s
CF [3]: 50.7 ± 8.5 ml/min/100 g
CF change vs before administration [3]: (−0.5 ± 4.0) ml/min/100 g
CI [3]: 2.05 ± 0.57 L/min/m^2
CI change vs before administration [3]: (0.09 ± 0.12) L/min/m^2
CO [3]: 1.20 ± 0.43 L/min
CO change vs before administration [3]: (0.05 ± 0.07) L/min
CR [3]: 1.46 ± 0.38 mmHg/ml/min/100 g
CR change vs before administration [3]: (0.04 ± 0.08) mmHg/ml/min/100 g
LVEDP [3]: 1.3 ± 1.5 mmHg
LVEDP change vs before administration [3]: (−1.4 ± 0.6) mmHg
LVP [3]: 107 ± 17 mmHg
LVP change vs before administration [3]: (0.9 ± 5.6) mmHg
LVW [3]: 1.15 ± 0.45 kg · m
LVW change vs before administration [3]: (0.07 ± 0.13) kg · m
TPR [3]: 5406 ± 2485 dyn · s/cm^5
TPR change vs before administration [3]: (−101 ± 366) dyn · s/cm^5
dp/dt [3]: 1232 ± 274 mmHg/s
dp/dt change vs before administration [3]: (128 ± 108) mmHg/s
−dp/dt [3]: −833 ± 243 mmHg/s
−dp/dt change vs before administration [3]: (20 ± 96) mmHg/s
CF [4]: 50.4 ± 7.8 ml/min/100 g
CF change vs before administration [4]: (−0.8 ± 4.7) ml/min/100 g
CI [4]: 1.97 ± 0.30 L/min/m^2
CI change vs before administration [4]: (0.01 ± 0.26) L/min/m^2
CO [4]: 1.15 ± 0.27 L/min
CO change vs before administration [4]: (0.00 ± 0.15) L/min
CR [4]: 1.48 ± 0.35 mmHg/ml/min/100 g
CR change vs before administration [4]: (0.06 ± 0.16) mmHg/ml/min/100 g
LVEDP [4]: 1.3 ± 1.7 mmHg
LVEDP change vs before administration [4]: (−1.41 ± 0.81) mmHg
LVP [4]: 106 ± 16 mmHg
LVP change vs before administration [4]: (0.2 ± 5.2) mmHg
LVW [4]: 1.1 ± 0.29 kg · m
LVW change vs before administration [4]: (0.03 ± 0.23) kg · m
TPR [4]: 5337 ± 1723 dyn · s/cm^5
TPR change vs before administration [4]: (−170 ± 595) dyn · s/cm^5
dp/dt [4]: 1181 ± 320 mmHg/s
dp/dt change vs before administration [4]: (77 ± 53) mmHg/s
−dp/dt [4]: −842 ± 170 mmHg/s
−dp/dt change vs before administration [4]: (10 ± 126) mmHg/s
CF [5]: 50.2 ± 11.6 ml/min/100 g
CF change vs before administration [5]: (−1.0 ± 6.9) ml/min/100 g
CI [5]: 2.04 ± 0.36 L/min/m^2
CI change vs before administration [5]: (0.08 ± 0.24) L/min/m^2
CO [5]: 1.19 ± 0.32 L/min
CO change vs before administration [5]: (0.04 ± 0.13) L/min
CR [5]: 1.53 ± 0.47 mmHg/ml/min/100 g
CR change vs before administration [5]: (0.11 ± 0.26) mmHg/ml/min/100 g
LVEDP [5]: 1.6 ± 1.6 mmHg
LVEDP change vs before administration [5]: (−1.05 ± 0.76) mmHg
LVP [5]: 105 ± 14 mmHg
LVP change vs before administration [5]: (−0.8 ± 7.7) mmHg
LVW [5]: 1.17 ± 0.40 kg · m
LVW change vs before administration [5]: (0.10 ± 0.20) kg · m
TPR [5]: 5170 ± 1416 dyn · s/cm^5
TPR change vs before administration [5]: (−336 ± 1012) dyn · s/cm^5
dp/dt [5]: 1199 ± 294 mmHg/s
dp/dt change vs before administration [5]: (95 ± 76) mmHg/s
−dp/dt [5]: −829 ± 157 mmHg/s
−dp/dt change vs before administration [5]: (24 ± 167) mmHg/s
CF [6]: 48.6 ± 7.2 ml/min/100 g
CF change vs before administration [6]: (−2.6 ± 2.8) ml/min/100 g
CI [6]: 2.09 ± 0.53 L/min/m^2
CI change vs before administration [6]: (0.13 ± 0.20) L/min/m^2
CO [6]: 1.22 ± 0.40 L/min
CO change vs before administration [6]: (0.07 ± 0.12) L/min
CR [6]: 1.52 ± 0.37 mmHg/ml/min/100 g
CR change vs before administration [6]: (0.11 ± 0.12) mmHg/ml/min/100 g
LVEDP [6]: 1.3 ± 1.4 mmHg
LVEDP change vs before administration [6]: (−1.35 ± 0.72) mmHg
LVP [6]: 105 ± 12 mmHg
LVP change vs before administration [6]: (−1.3 ± 6.7) mmHg
LVW [6]: 1.17 ± 0.44 kg · m
LVW change vs before administration [6]: (0.10 ± 0.11) kg · m
TPR [6]: 5285 ± 2431 dyn · s/cm^5
TPR change vs before administration [6]: (−222 ± 606) dyn · s/cm^5
dp/dt [6]: 1152 ± 313 mmHg/s
dp/dt change vs before administration [6]: (48 ± 63) mmHg/s
−dp/dt [6]: −815 ± 238 mmHg/s
−dp/dt change vs before administration [6]: (37 ± 55) mmHg/s
CF [7]: 49.3 ± 7.3 ml/min/100 g
CF change vs before administration [7]: (−1.9 ± 5.0) ml/min/100 g
CI [7]: 2.07 ± 0.47 L/min/m^2
CI change vs before administration [7]: (0.11 ± 0.22) L/min/m^2
CO [7]: 1.21 ± 0.38 L/min
CO change vs before administration [7]: (0.06 ± 0.13) L/min
CR [7]: 1.42 ± 0.27 mmHg/ml/min/100 g
CR change vs before administration [7]: (0.00 ± 0.17) mmHg/ml/min/100 g
LVEDP [7]: 2.0 ± 1.2 mmHg
LVEDP change vs before administration [7]: (−0.73 ± 0.52) mmHg
LVP [7]: 102 ± 17 mmHg
LVP change vs before administration [7]: (−4.4 ± 5.9) mmHg
LVW [7]: 1.12 ± 0.42 kg · m
LVW change vs before administration [7]: (0.04 ± 0.18) kg · m
TPR [7]: 4925 ± 1674 dyn · s/cm^5
TPR change vs before administration [7]: (−582 ± 764) dyn · s/cm^5
dp/dt [7]: 1078 ± 283 mmHg/s
dp/dt change vs before administration [7]: (−25 ± 109) mmHg/s
−dp/dt [7]: −789 ± 269 mmHg/s
−dp/dt change vs before administration [7]: (64 ± 63) mmHg/s
+LVdp/dtmax maximum increase (0.6 mg/kg iv, at 5-10 min after administration): 22.6±11.8%
CF [8]: 51.2 ± 8.0 ml/min/100 g
CI [8]: 1.96 ± 0.54 L/min/m^2
CO [8]: 1.15 ± 0.40 L/min
CR [8]: 1.41 ± 0.35 mmHg/ml/min/100 g
LVEDP [8]: 2.7 ± 1.3 mmHg
LVP [8]: 106 ± 16 mmHg
LVW [8]: 1.08 ± 0.41 kg · m
TPR [8]: 5507 ± 2267 dyn · s/cm^5
dp/dt [8]: 1104 ± 295 mmHg/s
−dp/dt [8]: −852 ± 244 mmHg/s
duration of LVEDP decrease (0.15, 0.3 and 0.6 mg/kg iv): more than 2 hours
left ventricular work (LVW) (0.15, 0.3 and 0.6 mg/kg iv): no significant change
CF and CR [9]: no significant changes
CO and CI [9]: no significant changes
SBP, DBP, MAP and HR [9]: no significant changes
left ventricular pressure (LVP) [9]: no significant change
total peripheral resistance (TPR) [9]: no significant change
−LVdp/dtmax (0.3 and 0.6 mg/kg iv): no significant effect

Source: US8835134B2, “Cycloastragenol monoglucoside, preparation, pharmaceutical composition and application thereof” (Tianjin Institute of Pharmaceutical Research, priority 2007, dated 2014)
